The results in this text go back to ChEMBL document CHEMBL1201862, “PubChem BioAssay data set” (2004).

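Where inhibition never reached the appropriate level, the endpoint shown equals the highest concentration tested. Otherwise, values were interpolated linearly from a five-concentration, 48-hour dose response in 96-well plates. At the GI50, growth is halved.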 The source made the active and inactive calls. No stated cut-off is given here; in the data, active = GI50 up to about 1.1 µM and inactive = higher.

Some test systems named below: SN12C; SK-MEL-28; OVCAR-8; 786-0; HCT-15; NCI-H23; OVCAR-3; UACC-62; HOP-62; SK-OV-3; A549; SK-MEL-5; Malme-3M; HCT-116; UACC-257; KM12; ACHN; SNB-75; OVCAR-4.
Assay in all cases: inhibition of tumour cell growth, NCI panel, 48 h

Consider `Cc1cc(S(=O)(=O)Nc2nncn2-c2ccc(Cl)cc2)c(S)cc1Cl`, for which the GI50 in the assay on SN12C is > 10 µM (inactive); with SK-MEL-28, > 10 µM (inactive); with OVCAR-8 it was > 10 µM (inactive); with 786-0 it was > 10 µM (inactive); with HCT-15 it was above 10 µM; with NCI-H23, > 10 µM (inactive). Moreover, the GI50 in the assay on OVCAR-3, with UACC-62, with HOP-62, in the assay on SK-OV-3, with A549 and in the assay on SK-MEL-5 was > 10 µM (inactive) throughout. Moreover, the GI50 in the assay with Malme-3M, with HCT-116, with UACC-257, with KM12, in the assay with ACHN and in the assay on SNB-75 was > 10 µM (inactive) each time. Further, in the assay with OVCAR-4, the GI50 is > 10 µM (inactive).

Turning to `COc1ccc(CCC2NCCc3cc(OC)c(OC)cc32)cc1` (stereo not drawn), the GI50 with SN12C was > 100 µM (inactive); with SK-MEL-28 it was > 100 µM (inactive); in the assay with OVCAR-8, > 100 µM (inactive); in the assay on 786-0, > 100 µM (inactive); in the assay on HCT-15, above 100 µM; in the assay on NCI-H23, > 100 µM (inactive). Besides, the GI50 in the assay with OVCAR-3, in the assay with HOP-62, in the assay on A549, in the assay on SK-MEL-5, with Malme-3M and with HCT-116 was > 100 µM (inactive) in each case. The GI50 in the assay with UACC-257 is > 100 µM (inactive); in the assay on KM12, > 100 µM (inactive); with ACHN it was > 100 µM (inactive); with SNB-75 it was > 100 µM (inactive); in the assay with OVCAR-4, 25.3 µM (inactive).

On to `CCOC(=O)c1ccc(C(=O)C(C(C)=O)C(=O)OC(C)(C)C)[nH]1` (stereo not drawn), for which the GI50 is > 100 µM (inactive) in the assay with SN12C; > 100 µM (inactive) in the assay with SK-MEL-28; > 100 µM (inactive) in the assay with OVCAR-8; > 100 µM (inactive) in the assay with 786-0; above 100 µM in the assay on HCT-15; > 100 µM (inactive) with NCI-H23. Also, the GI50 in the assay with OVCAR-3, in the assay with UACC-62, with HOP-62, in the assay on SK-OV-3, with A549 and in the assay on SK-MEL-5 was > 100 µM (inactive) each time. The GI50 in the assay with Malme-3M, in the assay on HCT-116, in the assay on KM12, with ACHN, in the assay on SNB-75 and in the assay with OVCAR-4 was > 100 µM (inactive) in each case.

For the compound `N#CN=C(N(Cc1ccccc1)Cc1ccccc1)N(Cc1ccccc1)Cc1ccccc1`, the GI50 in the assay on SN12C was 23.4 µM (inactive); with OVCAR-8 it was 6.7 µM (inactive); in the assay on HCT-15, 6.37 µM; in the assay with OVCAR-3 it was 10.9 µM (inactive); in the assay on UACC-62 it was 6.32 µM (inactive); in the assay on HOP-62, > 100 µM (inactive). For the same compound, the GI50 was 21.8 µM (inactive) in the assay with SK-OV-3; 6.44 µM (inactive) with A549; 36.7 µM (inactive) in the assay on Malme-3M; 3.51 µM (inactive) in the assay with HCT-116; 8.47 µM (inactive) in the assay with UACC-257; 11.9 µM (inactive) in the assay on KM12. Also, the values for the GI50 with ACHN and in the assay on SNB-75 were 4.53 µM (inactive) and 95.7 µM (inactive), respectively.

As for `O=C1c2sc(-c3ccc(F)cc3)cc2-n2cccc21`, the GI50 in the assay with SN12C was 19.4 µM (inactive); in the assay with SK-MEL-28 it was 69.8 µM (inactive); in the assay on OVCAR-8, 27.6 µM (inactive); in the assay with 786-0, 16.9 µM (inactive); in the assay with HCT-15, 51.3 µM; in the assay on OVCAR-3, 32.8 µM (inactive). The GI50 in the assay with UACC-62 is 28.3 µM (inactive); in the assay on HOP-62 it was 17 µM (inactive); in the assay on SK-OV-3 it was 28.2 µM (inactive); in the assay with A549 it was 26 µM (inactive); in the assay on SK-MEL-5, 38.5 µM (inactive); in the assay with Malme-3M it was 77.3 µM (inactive). Also, the GI50 was 18.4 µM (inactive) in the assay on HCT-116; 47.5 µM (inactive) in the assay on UACC-257; 26.4 µM (inactive) in the assay with KM12; 29.9 µM (inactive) with ACHN; 18.4 µM (inactive) in the assay with SNB-75; 28.1 µM (inactive) with OVCAR-4.

Consider `CN(COC(=O)C(C)(C)C)c1nc(N(C)COC(=O)C(C)(C)C)nc(N(C)COC(=O)C(C)(C)C)n1`, for which the GI50 in the assay on SN12C was > 100 µM (inactive); in the assay with SK-MEL-28 it was > 100 µM (inactive); in the assay on OVCAR-8, > 10 µM (inactive); in the assay with 786-0, 28.6 µM (inactive); in the assay on HCT-15, 21 µM; with NCI-H23, > 100 µM (inactive). Also, the GI50 in the assay with OVCAR-3 is > 100 µM (inactive); in the assay with UACC-62, > 10 µM (inactive); with HOP-62, > 100 µM (inactive); in the assay with SK-OV-3 it was > 100 µM (inactive); in the assay on A549, < 0.01 µM (active); in the assay with SK-MEL-5, 33.2 µM (inactive). The GI50 is 12.7 µM (inactive) in the assay on Malme-3M; 18.8 µM (inactive) with HCT-116; 98.2 µM (inactive) with UACC-257; > 100 µM (inactive) with KM12; 32.3 µM (inactive) in the assay on ACHN; 50.2 µM (inactive) in the assay with SNB-75. Also, the GI50 in the assay on OVCAR-4 is 82.4 µM (inactive).

Regarding `O=C1/C(=C/c2ccccc2)CN(C(=O)C(Cl)(Cl)Cl)C/C1=C\c1ccccc1`, the GI50 is 1.72 µM (inactive) in the assay on SN12C; 1.73 µM (inactive) with SK-MEL-28; 1.73 µM (inactive) in the assay with OVCAR-8; 2.89 µM (inactive) with 786-0; 1.68 µM in the assay on HCT-15; 2.37 µM (inactive) with NCI-H23. Further, the GI50 in the assay with OVCAR-3 is 2.86 µM (inactive); with UACC-62, 1.68 µM (inactive); with HOP-62, > 10 µM (inactive); in the assay with A549, 13.9 µM (inactive); in the assay on SK-MEL-5, 1.15 µM (inactive); with Malme-3M, 2.11 µM (inactive). The GI50 in the assay with HCT-116 was 0.356 µM (active); with UACC-257, 1.58 µM (inactive); in the assay on KM12, 1.29 µM (inactive); in the assay with ACHN, 2.01 µM (inactive); with SNB-75, 3.27 µM (inactive); in the assay on OVCAR-4, 1.73 µM (inactive).

For the compound `Cc1c2c(n(CCN(C)C)c1C)NN=C(C#N)S2(=O)=O`, the GI50 in the assay on SN12C was > 100 µM (inactive); with SK-MEL-28, > 100 µM (inactive); in the assay with OVCAR-8, > 100 µM (inactive); with 786-0 it was > 100 µM (inactive); in the assay with HCT-15, above 100 µM; with NCI-H23 it was > 100 µM (inactive). The GI50 with OVCAR-3, in the assay with UACC-62, in the assay on HOP-62, with SK-OV-3, in the assay with A549 and in the assay with Malme-3M was > 100 µM (inactive) in each case. Moreover, the GI50 with HCT-116, with UACC-257, in the assay with KM12, with ACHN, with SNB-75 and in the assay with OVCAR-4 was > 100 µM (inactive) each time.

On to `C/C(=C/c1c(C)[nH]c(=O)[nH]c1=O)C(=O)O`, for which the GI50 is > 1370 µM (inactive) in the assay on SN12C; > 1370 µM (inactive) in the assay with SK-MEL-28; above 1370 µM with HCT-15; > 1370 µM (inactive) in the assay on NCI-H23; > 1370 µM (inactive) with OVCAR-3; > 1370 µM (inactive) in the assay with UACC-62. In addition, the GI50 in the assay on HOP-62, in the assay on SK-OV-3, with A549, in the assay with SK-MEL-5, with Malme-3M and in the assay on HCT-116 was > 1370 µM (inactive) each time. The GI50 in the assay on UACC-257, in the assay on KM12, with SNB-75 and in the assay on OVCAR-4 was > 1370 µM (inactive) throughout.

Take `O=c1cc(NNc2ccccc2)[nH]c(=O)[nH]1`: the GI50 in the assay on SN12C was 25.9 µM (inactive); in the assay on SK-MEL-28 it was 11.2 µM (inactive); in the assay with OVCAR-8, 23.4 µM (inactive); in the assay on 786-0, 15.8 µM (inactive); in the assay with HCT-15 it was 16.5 µM; in the assay on NCI-H23, 56.8 µM (inactive). The GI50 in the assay on OVCAR-3 is 17.2 µM (inactive); in the assay on UACC-62, 14.8 µM (inactive); in the assay on HOP-62 it was 85.3 µM (inactive); in the assay on SK-OV-3 it was > 100 µM (inactive); in the assay with A549, > 100 µM (inactive); in the assay with SK-MEL-5 it was 80.9 µM (inactive). Also, the GI50 is 19.8 µM (inactive) with Malme-3M; 18.1 µM (inactive) in the assay with HCT-116; 16.1 µM (inactive) with UACC-257; 18.8 µM (inactive) in the assay on KM12; 13.3 µM (inactive) with ACHN; 16 µM (inactive) with OVCAR-4.

For `CCOC(=O)c1c(-c2ccccc2)c(C(OC(c2ccccc2)c2c(-c3ccccc3)c(C(=O)OCC)n3ccccc23)c2ccccc2)c2ccccn12` (stereo not drawn), the GI50 with SN12C was > 100 µM (inactive); in the assay on SK-MEL-28, > 100 µM (inactive); with OVCAR-8, > 100 µM (inactive); in the assay with 786-0 it was > 100 µM (inactive); with HCT-15, above 100 µM; with NCI-H23 it was > 100 µM (inactive). For the same compound, the GI50 with OVCAR-3, in the assay on UACC-62, in the assay on HOP-62, in the assay on SK-OV-3, in the assay with A549 and in the assay with Malme-3M was > 100 µM (inactive) in each case. Besides, the GI50 in the assay with HCT-116, in the assay on UACC-257, in the assay on KM12, in the assay on ACHN, in the assay on SNB-75 and in the assay with OVCAR-4 was > 100 µM (inactive) each time.
